Where a SMILES comes first, the peptide text is derived from it. [ ]: non-standard residue; d: D form.

The text below walks through data of BindingDB's records for doi:10.1021/jm00070a001 (Warner-Lambert, 1993).

In this assay the target is Endothelin-1 receptor (Oryctolagus cuniculus). As to the kind of experiment: Effective concentration against ET A receptor from rabbit renal artery vascular smooth muscle cells.
Compound `CC[C@H](C)[C@H](NC(=O)[C@H](CC(=O)O)NC(=O)[C@H](CC(C)C)NC(=O)[C@@H](Cc1ccccc1)NC(C)=O)C(=O)N[C@@H](Cc1c[nH]c2ccccc12)C(=O)O` [(S)-3-[(R)-2-((1S,5S)-2-Acetylamino-3-phenyl-propionylamino)-4-methyl-pentanoylamino]-N-{(S)-1-[(S)-1-carboxy-2-(1H-indol-3-yl)-ethylcarbamoyl]-2-methyl-butyl}-succinamic acid] (Ac-[dF]LDIW-OH) had a concentration for half-maximal inhibition (IC50) above 10 µM.
Under `CC[C@H](C)[C@H](NC(=O)[C@@H](NC(=O)[C@@H](Cc1ccccc1)NC(C)=O)[C@@H](C)CC)C(=O)N[C@@H](Cc1c[nH]c2ccccc12)C(=O)O` [Ac-D-Phe-Ile-Ile-Trp] (Ac-[dF]IIW-OH) stands above 10 µM; under `CC[C@H](C)[C@H](NC(=O)[C@H](CC(=O)O)NC(=O)[C@H](CC(C)C)NC(=O)[C@@H](Cc1ccccc1)NC(C)=O)C(=O)N[C@H](C(=O)N[C@@H](Cc1ccc(O)cc1)C(=O)O)[C@@H](C)CC` [Ac-D-Phe-Leu-Asp-Ile-Ile-Tyr] (Ac-[dF]LDIIY-OH), above 10 µM; under `CC[C@H](C)[C@H](NC(=O)[C@H](CC(=O)O)NC(=O)[C@H](CC(C)C)NC(=O)[C@H](N)Cc1ccccc1)C(=O)N[C@H](C(=O)N[C@@H](Cc1c[nH]c2ccccc12)C(=O)O)[C@@H](C)CC` [D-Phe-Leu-Asp-Ile-Ile-Trp], above 10 µM.
Under `CC[C@H](C)[C@H](NC(=O)[C@H](CC(=O)O)NC(=O)[C@H](CC(C)C)NC(=O)[C@@H](Cc1ccccc1)NC(C)=O)C(=O)N[C@@H](C)C(=O)N[C@@H](Cc1c[nH]c2ccccc12)C(=O)O` [Ac-D-Phe-Leu-Asp-Ile-Ala-Trp] (Ac-[dF]LDIAW-OH) stands 8 µM.
Under `CC[C@H](C)[C@H](NC(=O)[C@H](C)NC(=O)[C@H](CC(=O)O)NC(=O)[C@H](CC(C)C)NC(=O)[C@@H](Cc1ccccc1)NC(C)=O)C(=O)N[C@@H](Cc1c[nH]c2ccccc12)C(=O)O` [Ac-D-Phe-Leu-Asp-Ala-Ile-Trp] (Ac-[dF]LDAIW-OH) stands 3.6 µM.
Compound `CC[C@H](C)[C@H](NC(=O)[C@H](CC(=O)O)NC(=O)[C@H](CC(C)C)NC(=O)[C@@H](Cc1ccccc1)NC(C)=O)C(=O)N[C@H](C(=O)NC(Cc1cnc[nH]1)C(=O)O)[C@@H](C)CC` (mixture of isomers) [Ac-D-Phe-Leu-Asp-Ile-Ile-DL-His] displayed a concentration for half-maximal inhibition (IC50) above 10 µM.
Under `CC[C@H](C)[C@H](NC(=O)[C@H](CC(=O)O)NC(=O)[C@H](CC(C)C)NC(=O)[C@@H](Cc1ccc(O)cc1)NC(C)=O)C(=O)N[C@H](C(=O)N[C@@H](Cc1c[nH]c2ccccc12)C(=O)O)[C@@H](C)CC` (Ac-[dY]LDIIW-OH) stands 0.4 µM; under `CC[C@H](C)[C@H](NC(=O)[C@H](CC(=O)O)NC(=O)[C@H](CC(C)C)NC(=O)[C@@H](Cc1ccccc1)NC(C)=O)C(=O)N[C@H](C(=O)N[C@@H](Cc1csc2ccccc12)C(=O)O)[C@@H](C)CC` [Ac-D-Phe-Leu-Asp-Ile-Ile-Bta], 14 µM.
